Laboratory results as given in the NIST ThermoML archive (doi:10.1007/s10765-012-1352-4).

Assay: xn = mol fraction of the nth substance listed
Settings: Gas, Loschmidt diffusion cell combined with holoholographic interferometry

[Ne] [neon] + [Ar]
binary diffusion coefficient [m2/s]
Settings	100 kPa	200 kPa	500 kPa	1000 kPa
293.15 K, x2 = 0.1	3.14e-10	1.57e-10	6.34e-11	3.1e-11
293.15 K, x2 = 0.12	3.14e-10	1.57e-10	6.32e-11	3.1e-11
293.15 K, x2 = 0.14	3.13e-10	1.57e-10	6.31e-11	3.1e-11
293.15 K, x2 = 0.16	3.13e-10	1.57e-10	6.3e-11	3.09e-11
293.15 K, x2 = 0.18	3.12e-10	1.56e-10	6.29e-11	3.09e-11
293.15 K, x2 = 0.2	3.11e-10	1.56e-10	6.28e-11	3.08e-11
293.15 K, x2 = 0.22	3.11e-10	1.56e-10	6.27e-11	3.08e-11
293.15 K, x2 = 0.24	3.1e-10	1.56e-10	6.27e-11	3.07e-11
293.15 K, x2 = 0.26	3.1e-10	1.56e-10	6.26e-11	3.07e-11
293.15 K, x2 = 0.28	3.1e-10	1.56e-10	6.25e-11	3.06e-11
293.15 K, x2 = 0.3	3.09e-10	1.56e-10	6.24e-11	3.06e-11
293.15 K, x2 = 0.32	3.08e-10	1.55e-10	6.23e-11	3.05e-11
293.15 K, x2 = 0.34	3.08e-10	1.55e-10	6.22e-11	3.04e-11
293.15 K, x2 = 0.36	3.07e-10	1.55e-10	6.21e-11	3.03e-11
293.15 K, x2 = 0.38	3.08e-10	1.54e-10	6.2e-11	3.02e-11
293.15 K, x2 = 0.4	3.07e-10	1.54e-10	6.19e-11	3.01e-11
293.15 K, x2 = 0.6	3.1e-10	1.56e-10	6.31e-11	3.13e-11
293.15 K, x2 = 0.62	3.09e-10	1.56e-10	6.29e-11	3.13e-11
293.15 K, x2 = 0.64	3.09e-10	1.56e-10	6.28e-11	3.13e-11
293.15 K, x2 = 0.66	3.09e-10	1.56e-10	6.28e-11	3.12e-11
293.15 K, x2 = 0.68	3.09e-10	1.56e-10	6.28e-11	3.12e-11
293.15 K, x2 = 0.7	3.09e-10	1.56e-10	6.28e-11	3.12e-11
293.15 K, x2 = 0.72	3.1e-10	1.56e-10	6.28e-11	3.12e-11
293.15 K, x2 = 0.74	3.1e-10	1.56e-10	6.28e-11	3.12e-11
293.15 K, x2 = 0.76	3.1e-10	1.56e-10	6.28e-11	3.13e-11
293.15 K, x2 = 0.78	3.1e-10	1.57e-10	6.28e-11	3.13e-11
293.15 K, x2 = 0.8	3.1e-10	1.57e-10	6.28e-11	3.13e-11
293.15 K, x2 = 0.82	3.1e-10	1.57e-10	6.29e-11	3.13e-11
293.15 K, x2 = 0.84	3.11e-10	1.57e-10	6.29e-11	3.13e-11
293.15 K, x2 = 0.86	3.11e-10	1.57e-10	6.29e-11	3.13e-11
293.15 K, x2 = 0.88	3.11e-10	1.57e-10	6.3e-11	3.14e-11
293.15 K, x2 = 0.9	3.11e-10	1.57e-10	6.3e-11	3.14e-11
313.15 K, x2 = 0.1	3.56e-10	1.78e-10	–	–
313.15 K, x2 = 0.12	3.54e-10	1.77e-10	–	–
313.15 K, x2 = 0.14	3.53e-10	1.77e-10	–	–
313.15 K, x2 = 0.16	3.52e-10	1.77e-10	–	–
313.15 K, x2 = 0.18	3.52e-10	1.76e-10	–	–
313.15 K, x2 = 0.2	3.51e-10	1.76e-10	–	–
313.15 K, x2 = 0.22	3.51e-10	1.76e-10	–	–
313.15 K, x2 = 0.24	3.49e-10	1.75e-10	–	–
313.15 K, x2 = 0.26	3.49e-10	1.75e-10	–	–
313.15 K, x2 = 0.28	3.48e-10	1.75e-10	–	–
313.15 K, x2 = 0.3	3.47e-10	1.74e-10	–	–
313.15 K, x2 = 0.32	3.47e-10	1.74e-10	–	–
313.15 K, x2 = 0.34	3.46e-10	1.74e-10	–	–
313.15 K, x2 = 0.36	3.46e-10	1.74e-10	–	–
313.15 K, x2 = 0.38	3.45e-10	1.73e-10	–	–
313.15 K, x2 = 0.4	3.44e-10	1.73e-10	–	–
313.15 K, x2 = 0.6	3.52e-10	1.75e-10	–	–
313.15 K, x2 = 0.62	3.51e-10	1.75e-10	–	–
313.15 K, x2 = 0.64	3.51e-10	1.75e-10	–	–
313.15 K, x2 = 0.66	3.5e-10	1.75e-10	–	–
313.15 K, x2 = 0.68	3.5e-10	1.75e-10	–	–
313.15 K, x2 = 0.7	3.5e-10	1.75e-10	–	–
313.15 K, x2 = 0.72	3.5e-10	1.75e-10	–	–
313.15 K, x2 = 0.74	3.49e-10	1.75e-10	–	–
313.15 K, x2 = 0.76	3.49e-10	1.75e-10	–	–
313.15 K, x2 = 0.78	3.49e-10	1.75e-10	–	–
313.15 K, x2 = 0.8	3.49e-10	1.75e-10	–	–
313.15 K, x2 = 0.82	3.49e-10	1.75e-10	–	–
313.15 K, x2 = 0.84	3.49e-10	1.76e-10	–	–
313.15 K, x2 = 0.86	3.5e-10	1.76e-10	–	–
313.15 K, x2 = 0.88	3.51e-10	1.76e-10	–	–
313.15 K, x2 = 0.9	3.51e-10	1.76e-10	–	–
